The source of these data is PubChem BioAssay AID1259411 (Chemical Carcinogenesis Research Information System (CCRIS), 2018).

SMILES strings stand for the structures. Active and inactive are the calls of the source. No rule for the calls is given here.

The test system of this series is rodent carcinogenicity bioassays, tumor incidence. Kind of series: CCRIS carcinogenicity studies. A digest of the protocol:
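NCI-built, expert-reviewed records of carcinogenicity and related test outcomes (mutagenicity, tumor promotion/inhibition) compiled from published and report sources, historical span 1985-2011, not updated.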

Take `CCOC(=O)C(C)(C)Oc1ccc(Cl)cc1`: the carcinogen call (Species: MOUSE, Strain/Sex: CD-1/MALE,FEMALE (NEONATAL) (24-28/GROUP), Route: ORAL (GAVAGE), Dose: 0, 100, 350, 500 MG/KG BW ON D 9 AND 16 OF LIFE (STUDY DURATION: 1 YR)) is “inactive; negative”; the carcinogen call (Species: Mouse, Strain/Sex: Nontransgenic rasH2/Female (15/group), Route: Oral, Dose: 0, 250 mg/kg/day (Test material solvent: 0.5% (w/w) hydroxymethylcellulose in water), daily, by gavage for 27 wk, study, Dose: 0, 250 mg/kg/day (Test material solvent: 0.5% (w/w) hydroxymethylcellulose in water), daily, by gavage for 27 wk, study) is “inactive; negative (slight increase in incidence of various neoplasms (harderian gland, lu”; the carcinogen call (Species: Mouse, Strain/Sex: Nontransgenic rasH2/Male (15/group), Route: Oral, Dose: 0, 200 mg/kg/day (Test material solvent: 0.5% (w/w) hydroxymethylcellulose in water), daily, by gavage for 27 wk, study, Dose: 0, 200 mg/kg/day (Test material solvent: 0.5% (w/w) hydroxymethylcellulose in water), daily, by gavage for 27 wk, study, Tumor Site: Type of Lesion: Liver) was “inactive; negative (hepatocellular neoplasms observed in matched study of male transgenic”; the carcinogen call (Species: RAT, Strain/Sex: F344/MALE, Route: ORAL, Dose: 0.5% IN DIET FOR UP TO 28 MO, Tumor Site: Type of Lesion: LIVER: HEPATOCELLULAR CARCINOMA) was “active; positive”; the carcinogen call (Species: RAT, Strain/Sex: SPRAGUE-DAWLEY/MALE,FEMALE, Route: ORAL, Dose: 1500, 4500, 9000 PPM IN DIET, Dose: 1500, 4500, 9000 PPM IN DIET, Tumor Site: Type of Lesion: LIVER) was “active; positive”.

Take `CCCCN(N=O)C(=O)CCC`: the carcinogen call (Species: RAT, Strain/Sex: F344/MALE,FEMALE, Route: SUBCUTANEOUS, Dose: 38 UMOL/KG IN OLIVE OIL 1/WK FOR 10 WK, Tumor Site: Type of Lesion: INJECTION SITE: MALIGNANT FIBROUS HISTIOCYTOMA, LUNG: ADENOMA) is “active; positive”.

In the case of `Nc1ccc(-n2c3ccccc3c3ccncc32)cc1`, under “Species: RAT, Strain/Sex: F344/MALE (30-33/GROUP), FEMALE (28-32/GROUP), Route: ORAL, Dose: 0, 20, 40 PPM IN DIET FOR 85 WK (STUDY DURATION: 85 WK), Dose: 0, 20, 40 PPM IN DIET FOR 85 WK (STUDY DURATION: 85 WK), Tumor Site: Type of Lesion: LIVER: ADENOMA, HEPATOCELLULAR CARCINOMA, COLON: ADENOCARCINOMA, THYROID: FOLLICULAR CELL ADENOMA AND CARCINOMA, MONONUC, Tumor Site: Type of Lesion: LIVER: ADENOMA, HEPATOCELLULAR CARCINOMA, COLON: ADENOCARCINOMA, THYROID: FOLLICULAR CELL ADENOMA AND CARCINOMA, MONONUC”, the carcinogen call was “active; positive”.

Turning to `O=C(O)C(Cl)(Cl)Cl`, the carcinogen call (Species: MOUSE, Strain/Sex: B6C3F1/FEMALE, Route: INTRAPERITONEAL, Dose: 0, 1000 NMOL TOTAL DOSE, 1/3 AND 2/3 OF THE TOTAL DOSE ADMINISTERED AT 8 AND 15 DAYS OF AGE RESPECTIVELY, ANIMALS TERMIN) was “inactive; negative”; the carcinogen call (Species: MOUSE, Strain/Sex: B6C3F1/FEMALE, Route: INTRAPERITONEAL, Dose: 0, 2000 NMOL TOTAL DOSE, 3/7 AND 4/7 OF THE TOTAL DOSE ADMINISTERED AT 8 AND 15 DAYS OF AGE RESPECTIVELY, ANIMALS TERMIN) was “inactive; negative”; the carcinogen call (Species: MOUSE, Strain/Sex: B6C3F1/FEMALE, Route: ORAL, Dose: 0, 2, 6.67, 20 MMOL/L IN DRINKING WATER FOR 360 D (STUDY DURATION: 360 D), Dose: 0, 2, 6.67, 20 MMOL/L IN DRINKING WATER FOR 360 D (STUDY DURATION: 360 D), Tumor Site: Type of Lesion: LIVER: CARCINOMA) was “active; positive”; the carcinogen call (Species: MOUSE, Strain/Sex: B6C3F1/FEMALE, Route: ORAL, Dose: 0, 2, 6.67, 20 MMOL/L IN DRINKING WATER FOR 576 D (STUDY DURATION: 576 D), Dose: 0, 2, 6.67, 20 MMOL/L IN DRINKING WATER FOR 576 D (STUDY DURATION: 576 D), Tumor Site: Type of Lesion: LIVER: ADENOMA, CARCINOMA) was “active; positive”; the carcinogen call (Species: MOUSE, Strain/Sex: B6C3F1/MALE, Route: INTRAPERITONEAL, Dose: 0, 1000 NMOL TOTAL DOSE, 1/3 AND 2/3 OF THE TOTAL DOSE ADMINISTERED AT 8 AND 15 DAYS OF AGE RESPECTIVELY, ANIMALS TERMIN) was “inactive; negative”; the carcinogen call (Species: MOUSE, Strain/Sex: B6C3F1/MALE, Route: INTRAPERITONEAL, Dose: 0, 2000 NMOL TOTAL DOSE, 3/7 AND 4/7 OF THE TOTAL DOSE ADMINISTERED AT 8 AND 15 DAYS OF AGE RESPECTIVELY, ANIMALS TERMIN) is “inactive; negative”. Further, the carcinogen call was “active; positive” (Species: MOUSE, Strain/Sex: B6C3F1/MALE, Route: ORAL, Dose: 0, 1, 2 G/L IN DRINKING WATER FOR 52 WK (STUDY DURATION: 52 WK), Dose: 0, 1, 2 G/L IN DRINKING WATER FOR 52 WK (STUDY DURATION: 52 WK), Tumor Site: Type of Lesion: LIVER: ADENOMA OR HEPATOCELLULAR CARCINOMA); “active; positive” (Species: MOUSE, Strain/Sex: B6C3F1/MALE, Route: ORAL, Dose: 0, 5 G/L (0; 31 MILLIMOLAR) IN DRINKING WATER FOR 61 WK (STUDY DURATION: 61 WK), Dose: 0, 5 G/L (0; 31 MILLIMOLAR) IN DRINKING WATER FOR 61 WK (STUDY DURATION: 61 WK), Tumor Site: Type of Lesion: LIVER: CARCINOMA); “inactive; negative” (Species: RAT, Strain/Sex: F344/MALE, Route: ORAL, Dose: 0, 0.05, 0.5, 5 G/L IN DRINKING WATER FOR 104 WK (STUDY DURATION: 104 WK), Dose: 0, 0.05, 0.5, 5 G/L IN DRINKING WATER FOR 104 WK (STUDY DURATION: 104 WK)).

As to `CC(C)=CCC/C(C)=C/C=C/C(C)=C/C=C/C(C)=C/C=C/C=C(C)/C=C/C=C(C)/C=C/C=C(\C)CCC=C(C)C`, the carcinogen call (Species: MOUSE, Strain/Sex: C57BL/6J/MALE, Route: ORAL, Dose: 0, 50, 200 PPM IN DRINKING WATER FOR 80 WK (STUDY DURATION: 80 WK), Dose: 0, 50, 200 PPM IN DRINKING WATER FOR 80 WK (STUDY DURATION: 80 WK)) is “inactive; negative”.

For `O=C(O)c1cc(Oc2ccc(C(F)(F)F)cc2Cl)ccc1[N+](=O)[O-]`, the carcinogen call runs as follows: (Species: MOUSE, Strain/Sex: B6C3F1/FEMALE, Route: ORAL, Dose: 0, 625, 1250, 2500 PPM IN DIET FOR 18 MO (STUDY DURATION: 18 MO), Dose: 0, 625, 1250, 2500 PPM IN DIET FOR 18 MO (STUDY DURATION: 18 MO), Tumor Site: Type of Lesion: LIVER: ADENOMA, CARCINOMA, STOMACH: PAPILLOMA) “active; positive”; (Species: MOUSE, Strain/Sex: B6C3F1/MALE, Route: ORAL, Dose: 0, 625, 1250, 2500 PPM IN DIET FOR 18 MO (STUDY DURATION: 18 MO), Dose: 0, 625, 1250, 2500 PPM IN DIET FOR 18 MO (STUDY DURATION: 18 MO), Tumor Site: Type of Lesion: LIVER: ADENOMA, CARCINOMA, STOMACH: PAPILLOMA) “active; positive”; (Species: MOUSE, Strain/Sex: CR-CD-1/FEMALE, Route: ORAL, Dose: 0, 7.5, 4.5, 270 PPM IN DIET FOR 24 MO (STUDY DURATION: 24 MO), Dose: 0, 7.5, 4.5, 270 PPM IN DIET FOR 24 MO (STUDY DURATION: 24 MO), Tumor Site: Type of Lesion: LIVER: ADENOMA OR CARCINOMA) “active; positive”; (Species: MOUSE, Strain/Sex: CR-CD-1/MALE, Route: ORAL, Dose: 0, 7.5, 4.5, 270 PPM IN DIET FOR 24 MO (STUDY DURATION: 24 MO), Dose: 0, 7.5, 4.5, 270 PPM IN DIET FOR 24 MO (STUDY DURATION: 24 MO), Tumor Site: Type of Lesion: LIVER: ADENOMA OR CARCINOMA) “active; positive”; (Species: RAT, Strain/Sex: F344/MALE, FEMALE, Route: ORAL, Dose: 0, 25, 150, 500, 2500, 5000 PPM IN DIET FOR 2 YR (STUDY DURATION: 2 YR), Dose: 0, 25, 150, 500, 2500, 5000 PPM IN DIET FOR 2 YR (STUDY DURATION: 2 YR)) “inactive; negative”.

As to `O=NN(CCCC(F)(F)F)CCCC(F)(F)F`, the carcinogen call (Species: RAT, Strain/Sex: SPRAGUE-DAWLEY/MALE,FEMALE, Route: GAVAGE, Dose: 1.5, 7.5% IN VEGETABLE OIL 2/WK FOR UP TO 32 WK, Tumor Site: Type of Lesion: LIVER: HEPATOCELLULAR CARCINOMA, LUNG: SQUAMOUS CELL CARCINOMA, ADENOCARCINOMA) was “active; positive”.

Consider `CN(CCC(=O)O)N=O`, for which the carcinogen call (Species: MOUSE, Strain/Sex: STRAIN-A/FEMALE, Route: INTRAPERITONEAL, Dose: 0, 200 UMOL MOUSE (TOTAL DOSE) ADMINISTERED IN 0.1 ML SALINE 3/WK (TOTAL 20 INJECTIONS) (STUDY DURATION: 37 WK), Tumor Site: Type of Lesion: LUNG: ADENOCARCINOMA, ADENOMA) is “active; positive”.

For the molecule `C=C/C=C\C1C2/C=C/CC(=O)O[C@@]34C[C@@H](C)[C@]5(O)C6C=C(C)C(=O)[C@@]6(O)CC(CO)=C[C@H]5[C@@H]3[C@@]4(C)COC(=O)C2C2C(/C=C/C=C/C=C/CCC)C12` (stereo not given in full), under “Species: MOUSE, Strain/Sex: CD-1/FEMALE (15), Route: DERMAL, Dose: 0, 2 UG IN 0.1 ML OF METHANOL 2/WK FOR 16 WK BEGINNING 1 WK POST CARCINOGEN DOSE THEN 5 UG 2/WK FOR 13 WK (STUDY DURATIO”, the carcinogen call is “inactive; negative”.
